Read-outs that look alike come from different tables or passages of the source.
Cc1ccc(C(C)C)cc1O [Example 2, Carvacerol]
H2O (clarity) (Solvent C8-10 Acid Ethanol, Surfactant/Solubilizer Polysorbate 20): Clear
H2O (clarity) (Solvent Ethanol, Surfactant/Solubilizer Polysorbate 20): Cloudy
H2O (clarity) (Solvent NONE, Surfactant/Solubilizer Polysorbate 20 Polysorbate 80): Clear
H2O (clarity) (Solvent NONE, Surfactant/Solubilizer Quat 242 Ti-Nat): Clear
H2O (clarity) (Solvent Propanediol, Surfactant/Solubilizer AB-1 (first entry)): Not Clear
H2O (clarity) (Solvent Propanediol, Surfactant/Solubilizer AB-1 (second entry)): Not Clear
H2O (clarity) (Solvent Propanediol, Surfactant/Solubilizer Polyglycerol): Not Clear
H2O (clarity) (Solvent Propanediol, Surfactant/Solubilizer Polyglycerol D9): Not Clear
H2O (clarity) (Solvent Propanediol, Surfactant/Solubilizer Polyglycerol D9 SugarNate): Not Clear
H2O (clarity) (Solvent Propanediol, Surfactant/Solubilizer Quat 242 Ti-Nat): Not Clear
H2O (clarity) (Solvent Propanediol, Surfactant/Solubilizer Quat 242 Ti-Nat AB-1): Not Clear
H2O (clarity) (Solvent Propanediol, Surfactant/Solubilizer SugaNate 160): Not Clear
